Reference: US8344009B2, “Substituted phenoxy thiazolidinediones as estrogen related receptor-á modulators” (priority 2007, dated 2013)
Marks after values point to notes of the source that are not given here.

Assays:
[1] = system: ZDF fa/fa male rats; experiment: ZDF diabetic rat model (3, 10, 30 mpk); format: in vivo; conditions: for % Fat Day 18: Q-NMR; for FFA (NEFA) / Glucose / Triglycerides / cholesterol / ketone: 26 day ZDF rat efficacy study; for circulating glucose levels upon intraperitoneal delivery of insulin (ITT): FIG. 4, ITT at day 11
Description: The ZDF rat is a monogenic model of Type II Diabetes. […] This mutation results in a hyperphagic phenotype and the rodent develops obesity, hyperlipidemia, fasting hyperglycemia and Type II Diabetes. The model at 7 weeks of age develops hyperinsulinemia followed by a loss of glucose stimulated insulin secretion due to beta islet failure. Fifty ZDF fa/fa male rats were received at four weeks of age and allowed to acclimate for one week. At five week of age the animals were single housed in cages in a temperature-controlled room with 12-hour light/dark cycle. They were allowed ad libitum access to water and food and throughout the study were maintained on a Purina 5008 diet. Animals were sorted into five groups based first on glucose levels and then at body weight (average fed glucose levels and body weight at 7 weeks of age were 488 mg/dL and 282 grams, respectively). Animals were given Compound 1 orally once a day for 25 days in the morning at 3 mpk, 10 mpk and 30 mpk. A separate group was dosed daily with vehicle. The vehicle used for Compound 1 in this study consisted of 15% VE-TEPG, 30% PEG400 and 55% water. Food intake, body weight, glucose, insulin, triglyceride and free fatty acid levels were monitored throughout the study using blood collected from the tail vein. At day 11 of the study an insulin tolerance test (ITT) was done to evaluate peripheral insulin sensitivity. On day 19 an OGTT was done to assess glucose disposal rates. […] On the day of the necropsy the rats were bled through the orbital sinus under CO2:O2 anesthesia. Animals were sacrificed and several tissues were collected, frozen in liquid nitrogen and stored at −80° C. Serum plasma samples were prepared by centrifugation in EDTA containing tubes, transferred into 96 well plates and stored at −80° C.

[2] = system: AKR/J mice; experiment: AKR/J mouse obesity model; format: in vivo; conditions: for 3-hydroxy-butyrate / % body fat / FFA (Free Fatty Acids): NEFA (Non Esterified Fatty Acids) / Glucose / Lean Mass / Triglyceride / Insulin / Total body fat: five days; for Insulin: plasma; for Total body fat: high fat diet, Q-NMR
Method: AKR/J mice are a polygenic model of diet-induced obesity characterized by hypertriglyceridemia and hyperinsulinemia. AKR/J mice were received at seven weeks of age and allowed to acclimate for one week and then placed on high fat diet (45% of the calories from fat) for five weeks. Animals were treated for five days with 3 mpk (mg/kg) and 30 mpk Compound 1 (Example 1) given orally twice a day. Food intake was measured at day four. On day five, prior to necropsies, body weight was recorded and body composition was measured by Q-NMR (Quantitative Nuclear Magnetic Resonance). Animals were anesthetized with carbon dioxide and blood was collected by cardiac puncture. Plasma was obtained by centrifugation and used to determine circulating insulin levels and clinical chemistries, including liver functions tests, using commercially available kits as per manufacturers instructions. Several tissues were harvested, frozen in liquid nitrogen and stored at −80° C. for further use.

SMILES: COc1cc(/C=C2\SC(=O)NC2=O)ccc1Oc1ccc(C#N)cc1C(F)(F)F [Compound 1, 4-[4-(2,4-Dioxo-thiazolidin-5-ylidenemethyl)-2-methoxy-phenoxy]-3-trifluoromethyl-benzonitrile]
- Body weight change (0-25 day) ([1]; 3 mpk orally once a day): 62.7*
- Total food intake (0-25 days) ([1]; 3 mpk orally once a day): 727
- % Fat Day 18 ([1]; 3 mpk orally once a day): 58** %
- FFA (NEFA) ([1]; 3 mpk): 0.65 mM
- Glucose ([1]; 3 mpk): 584.88 mg/dL
- Triglycerides ([1]; 3 mpk): 596.33 mg/dL
- cholesterol ([1]; 3 mpk): 145.70 mg/dL
- ketone ([1]; 3 mpk): 183.97 µmol/L
- Body weight change (0-25 day) ([1]; 10 mpk orally once a day): 49.3
- Total food intake (0-25 days) ([1]; 10 mpk orally once a day): 720
- % Fat Day 18 ([1]; 10 mpk orally once a day): 59** %
- FFA (NEFA) ([1]; 10 mpk): 0.54 mM
- Glucose ([1]; 10 mpk): 549.63 mg/dL
- Triglycerides ([1]; 10 mpk): 402.39** mg/dL
- cholesterol ([1]; 10 mpk): 156.08* mg/dL
- ketone ([1]; 10 mpk): 144.61 µmol/L
- Body weight change (0-25 day) ([1]; 30 mpk orally once a day): 65.3*
- Total food intake (0-25 days) ([1]; 30 mpk orally once a day): 703**
- % Fat Day 18 ([1]; 30 mpk orally once a day): 60*** %
- FFA (NEFA) ([1]; 30 mpk): 0.48 mM
- Glucose ([1]; 30 mpk): 545.64 mg/dL
- Triglycerides ([1]; 30 mpk): 320.94*** mg/dL
- cholesterol ([1]; 30 mpk): 169.92** mg/dL
- ketone ([1]; 30 mpk): 134.84* umol/L
- fed free fatty acid levels ([1]; FIG. 3, versus vehicle control): reduces
- fed triglyceride levels ([1]; FIG. 3, versus vehicle control): reduces
- circulating glucose levels upon intraperitoneal delivery of insulin (ITT) [1]: reduction in circulating glucose levels
- circulating glucose levels upon intraperitoneal delivery of insulin (ITT) ([1]; listed as compound 1): normalizing glucose levels at the 30 minute time point
- AUC of glucose during the ITT ([1]; FIG. 4 right panel, 0-60 and 0-120 minute time points): reduction of AUC of glucose
- fasting glucose levels ([1]; FIG. 5, after a 16 hour fast): reduction in fasting glucose levels
- plasma glucose following an oral glucose tolerance test ([1]; FIG. 6, OGTT day 19): lowering fasting plasma glucose
- insulin release levels following an oral glucose tolerance test ([1]; FIG. 7): increase on insulin release levels
- Hb1Ac levels ([1]; FIG. 8, after 26 days treatment): reduction in Hb1Ac levels
- fed glucose levels ([1]; FIG. 8, first three weeks of the study): lowering of fed glucose levels
- fed plasma insulin levels ([1]; FIG. 9): increasing fed plasma insulin levels
- pancreatic insulin content ([1]; FIG. 9): increasing
- 3-hydroxy-butyrate ([2]; 3 mpk orally twice a day): 8.3 ± 0.9 ×10−5
- % body fat ([2]; 3 mpk orally twice a day): 12.7 ± 0.8%
- FFA (Free Fatty Acids): NEFA (Non Esterified Fatty Acids) ([2]; 3 mpk orally twice a day): 0.59 ± 0.07 mM
- Glucose ([2]; 3 mpk orally twice a day): 165.0 ± 5.0 mg/dL
- Lean Mass ([2]; 3 mpk orally twice a day): 20.2 ± 0.3 g
- Triglyceride ([2]; 3 mpk orally twice a day): 160.0 ± 18.9 mg/dL
- Insulin ([2]; 3 mpk orally twice a day): 9.6 ± 1.5 ng/mL
- 3-hydroxy-butyrate ([2]; 30 mpk orally twice a day): 12.6 ± 1.8 ×10−5
- % body fat ([2]; 30 mpk orally twice a day): 9.3 ± 0.6 %
- FFA (Free Fatty Acids): NEFA (Non Esterified Fatty Acids) ([2]; 30 mpk orally twice a day): 0.41 ± 0.05 mM
- Glucose ([2]; 30 mpk orally twice a day): 185.0 ± 10.01 mg/dL
- Lean Mass ([2]; 30 mpk orally twice a day): 20.0 ± 0.2 g
- Triglyceride ([2]; 30 mpk orally twice a day): 80.0 ± 9.8 mg/dL
- Insulin ([2]; 30 mpk orally twice a day): 2.8 ± 0.8 ng/mL
- Total body fat ([2]; AKR/J mice, 3 mpk orally twice a day): 3.87 ± 0.29 g
- Total body fat ([2]; AKR/J mice, 30 mpk orally twice a day): 2.7 ± 0.2 g
- body weight ([2]; FIG. 1, AKR/J mice, 3 and 30 mpk twice a day, day five): reduces body weight
- food intake ([2]; FIG. 1, AKR/J mice, 3 and 30 mpk twice a day, day four): reduces food intake
